According to article PMC4038613, “A New Class of Multimerization Selective Inhibitors of HIV-1 Integrase” (PLoS Pathogens, 2014):

Tests used:
[1] = biological target: IN-LEDGF/p75 (Human immunodeficiency virus type 1 group M subtype B, UniProt P12497); test: HTRF-based IN-LEDGF/p75 binding assay; design: species or system HIV-1
Method: HTRF-based IN multimerization and IN-LEDGF/p75 binding assays were carried out as described previously [33].

[2] = in vitro; assay type: cell-based
Method: The cytotoxcity assays were performed as described previously. The fitted dose-response curves were generated to calculate EC50 or CC50 using Origin software (OriginLab, Inc.).

[3] = system: HIV-1 virions; assay type: cell-based; details: virions produced in presence of 1 µM KF116
[4] = system: HIV-1 capsid (p24); test: Sucrose density gradient fractionation of detergent-lysed virions; assay type: cell-based; details: 1 µM KF116, fractions 18–20
Method: Cell-free virions were harvested, detergent-lysed, and separated on 30–70% linear sucrose density gradients. Twenty-one 0.5 ml fractions were collected from the top of the gradient and subjected to SDS-PAGE and immunoblotted with HIV-1 Gag antisera to monitor the distribution of HIV-1 capsid. […] (D) Quantitation of HIV-1 capsid (p24) signal intensity from (B) as measured by ImageJ software. Graph represents the relative distribution of HIV-1 capsid (p24) in each of the sucrose density gradient fractions.
Sucrose density gradient fractionation was carried out as described previously [74] with some modifications. Briefly, HIV-1 virions were produced in the presence of the inhibitor or diluent control (DMSO) and cell-free virions were concentrated over a 25% sucrose cushion by ultra-centrifugation at 28,000 rpm for 2 h at 4°C in SW41 rotor (Beckman). Pelleted virions were resuspended in 300 µl STE buffer (10 mM Tris pH 7.5, 100 mM NaCl, 1 mM EDTA), lysed with 0.5% Triton X100 for 2 minutes at room temperature. Lysed virions were loaded on 30–70% linear sucrose density gradients in STE buffer, and ultra-centrifuged at 28,500 rpm for 16 h at 4°C in SW41 rotor (Beckman). Twenty-one 0.5-ml fractions were collected from the top of the gradient and subjected to SDS-PAGE and immunoblotted with HIV-1 Gag antisera to monitor the distribution of HIV-1 capsid.

[5] = biological target: T1, IN (Human immunodeficiency virus type 1 group M subtype B, UniProt P12497); test: DLS assay of recombinant IN multimerization; assay type: biochemical, HIV-1
T1 construct: DLS analysis of KF116-induced multimerization of recombinant IN
Method: (§1) (A) DLS analysis of KF116-induced multimerization of recombinant IN. […] The indicated volumes of cross-linked reaction products were resolved by SDS-PAGE and immunoblotted with HIV-1 IN antibody. The bands corresponding to IN “monomer”, “dimer”, and “higher order oligomers” are indicated.
DLS signals were recorded at room temperature using a Malvern Nano series zetasizer instrument.

[6] = system: HIV-1 virions; test: Virion RNA packaging; assay type: cell-based; details: 1 µM KF116
Method: HEK293T cells (2×10^6 cells/100 mm culture dish in 10 ml of complete medium) were transfected with HIV-1 provirus (pNL4-3) and cultured for 24 h to ensure expression of the provirus as described above. Next, the cells were treated with the indicated inhibitor or diluent control (DMSO) for 1 h. The culture supernatant was replaced with fresh complete medium containing either the inhibitor or DMSO, and cells were then cultured for another 24 h to allow for the production of HIV-1 particles in the presence of the inhibitor or diluent control. The virus containing cell-free supernatant was collected, filtered through a 0.45 µm filter, and concentrated over a 25% sucrose cushion by ultra-centrifugation at 28,000 rpm for 2 h at 4°C in SW41 rotor (Beckman). […] RNA was isolated from the pelleted virions and subsequent cDNA preparations were used for gag quantitative PCR as described above. Relative virion RNA packaging was calculated by normalizing virion Gag RNA copy numbers to Gag p24.
In parallel, aliquots of cell-free virus-containing supernatant were used to measure the amount of viral particles produced using HIV-1 Gag p24 ELISA. Virion RNA packaging was calculated by normalizing virion Gag RNA copy numbers to Gag p24. […]

[7] = system: virion-associated RT; test: Virion-associated Reverse Transcriptase (RT) assay; assay type: biochemical, HIV-1; details: virions produced with 1 µM KF116
Method: Virions generated in the presence of inhibitor or diluent control (DMSO) was concentrated over 25% sucrose cushion. The virion-associated RT activity assay was performed as described previously, [81] with minor changes. Briefly, equivalent amounts of concentrated virions (based on HIV-1 p24 ELISA) were incubated with RT buffer, containing 50 mM Tris (pH 7.8), 75 mM KCL, 5 mM MgCl2, 2 mM DTT, 0.05% Nonidet P-40 (v/v), 5 µg/ml Poly r(A). Poly d(T)12–18, and 10 µCi of α-^32P dTTP, in 35 µl final volume. The reactions were incubated at room temperature for 3 h. Duplicate 10 µl of the final reactions were blotted onto a 96-well DEAE Filtermat paper (Wallac-Perkin Elmer), dried, washed and processed as described previously.
The initiation of reverse transcription from total viral RNA was measured using an in vitro HIV-1 reverse transcription reaction, which extends tRNA^Lys3 primer on viral RNA template by +6-nt. The final reaction products were resolved by PAGE and detected by phosphorimager analysis. (Upper panel) A representative image of the 6-nt extension products is shown. (Lower panel) The bar graph represents quantification of bands from the upper panel using ImageJ software. The signal intensity obtained for the non-treated (DMSO) sample was set to 100%. […] Equivalent amounts of concentrated virions, based on HIV-1 p24 ELISA, were analyzed for virion-associated RT activity. […]

[8] = biological target: IN in HIV-1 virions (Human immunodeficiency virus type 1 group M subtype B, UniProt P12497); test: Virion-associated IN cross-linking assay (BS3); assay type: cell-based; details: virions from cells treated with 1 µM KF116
Method: as §1
The IN cross-linking assay was performed as described previously. Briefly, concentrated virions equivalent to 50 ng of HIV-1 p24 were cross-linked with 50 µM bis(sulfosuccinimidyl)suberate (BS^3) cross-linking reagent (Thermo Scientific). Subsequent cross-linked reaction products were quenched and resolved by SDS-PAGE (4–12%, Invitrogen) and immunoblotted.

[9] = biological target: HIV-1 IN (Human immunodeficiency virus type 1 group M subtype B, UniProt P12497); test: biochemical
Method: HTRF-based IN multimerization and IN-LEDGF/p75 binding assays were carried out as described previously [33]. The HTRF signal was recorded using a Perkin Elmer Multimode EnSpire plate reader.

Question: Which IC50 [1] does the source give for `Cc1nc(-c2nc3ccc(Cl)cc3[nH]2)c(C)c(-c2ccccc2)c1C(OC(C)(C)C)C(=O)O` (stereo not drawn) [KF116] here?
Answer: 5.03 ± 0.36 µM

Question: What about the CC50 [2] of the same molecule?
Answer: > 100 µM

Question: What about the “eccentric cores among mature virions” value [3] of the same molecule?
Answer: ~95%

Question: And the “reduction of HIV-1 capsid (p24) in higher density fractions” value [4]?
Answer: > 95%

Question: And the “DLS particle size diameter, 30 min” value ([5]; 1 µM KF116, 200 nM IN)?
Answer: 1106 nm

Question: What about the “DLS particle size diameter, 120 min” value ([5]; 1 µM KF116, 200 nM IN) of the same molecule?
Answer: 1281 nm

Question: And the “DLS particle size diameter, immediately upon addition (2 minutes)” value ([5]; 1 µM KF116, 200 nM IN)?
Answer: 142 nm

Question: And the “DLS signal of inhibitor alone (self-aggregation in aqueous solution)” value ([5]; only KF116, no IN)?
Answer: no signal was recorded

Question: What about the “effect on viral genomic RNA packaging” value [6] of the same molecule?
Answer: did not affect

Question: What about the “effect on virion-associated RT activities” value [7] of the same molecule?
Answer: no effects

Question: What about the “IN multimerization in virions after BS3 cross-linking” value [8] of the same molecule?
Answer: levels of IN dimers increased and new slower migrating bands were observed

Question: What about the EC50 [9] of the same molecule?
Answer: 0.086 ± 0.006 µM
